Results: ChEMBL document CHEMBL1201862, “PubChem BioAssay data set” (2004)
The source made the active and inactive calls.

What was measured:
[1] = Luminescence Cell-Based Dose Confirmation to Identify Activators of 5'UTR Stem-Loop Driven Alpha-Synuclein mRNA Translation in H4 Neuroglioblastoma Cells. [Related pubchem assays: 1829 (Project Summary), 1814 (Primary HTS)]; format: functional
[2] = Luminescence Cell-Based Dose Response HTS to Identify Activators of Luciferase Translation or Activity in H4 […] Cells. [Related pubchem assays: 1829 (Project Summary), 1814 (Primary HTS)]; format: functional
[3] = Luminescence Cell-Based Dose Response to Identify Activators of Luciferase Translation or Activity in H4-C Neuroglioblastoma Cells. [Related pubchem assays: 1829 (Project Summary), 1814 (Primary HTS)]; format: functional
[4] = Luminescence Cell-Based Dose Response to Identify Activators of 5'UTR Stem-Loop Driven Prion Protein mRNA Translation in H4-C Neuroglioblastoma Cells. [Related pubchem assays: 1829 (Project Summary), 1814 (Primary HTS)]; format: functional
[5] = molecular target: Eukaryotic translation initiation factor 4H (Homo sapiens, UniProt Q15056); test: human eIF4H binding inhibitors, primary screen, translation initiation inhibitor project, biochemical, uHTS, fluorescence polarization (AID 2012)
[6] = molecular target: Polyadenylate-binding protein 1 (Homo sapiens, UniProt P11940); test: PABP poly(A) RNA binding inhibitors, primary screen, biochemical, fluorescence polarization, uHTS (AID 2014)
[7] = molecular target: DNA dC->dU-editing enzyme APOBEC-3A (Homo sapiens, UniProt P31941); test: Dose Response confirmation of small molecule APOBEC3A DNA Deaminase Inhibitors via a fluorescence-based single-stranded DNA deaminase assay. [Related pubchem assays (depositor defined):AID493011, AID493024]; format: functional
[8] = molecular target: DNA dC->dU-editing enzyme APOBEC-3G (Homo sapiens, UniProt Q9HC16); format: functional;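 also: Dose-response counterscreen measuring inhibition of APOBEC3G DNA deaminase activity, run while confirming APOBEC3A inhibitors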
Bcl-2-like protein 10 = Bcl-2-like protein 10 (Homo sapiens, UniProt Q9HD36); test: displacers of TR3 peptide from Bcl-B, primary screen, selectivity assay for Bfl-1 inhibitor project, biochemical, fluorescence polarization, FITC-TR3 peptide (AID 748);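 also: fluorescence polarization from a fluorescein-labelled TR3 peptide binding purified Bcl-B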
[9] = growth suppression of PTEN-null colon cells, dose response, cell-based, HCT116 PTEN knockout (AID 1047); format: functional;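 also: HCT116 colon tumor cells with PTEN knocked out; cells exposed to compound for 60 hours before readout; potency for loss of cell viability measured by luminescence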
[10] = growth suppression of beta-catenin-knockout colon cells, dose response, cell-based, HCT116, human colon tumor (AID 1045); format: functional;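 also: HCT116 colon tumor cells with beta catenin knocked out; cells exposed to compound for 60 hours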
NADPH oxidase 1 = molecular target: T1, NADPH oxidase 1 (Homo sapiens, UniProt Q9Y5S8); format: functional, cell-based;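 also: Cell-based assay with luminescence read-out, IC50 derived from inhibitor dose-response curves; intracellular ROS from endogenous NOX1 in intact HT29 colon cancer cells; potency of inhibitors that lower the ROS luminescence signal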
T1 sequence (Q9Y5S8 whole entry): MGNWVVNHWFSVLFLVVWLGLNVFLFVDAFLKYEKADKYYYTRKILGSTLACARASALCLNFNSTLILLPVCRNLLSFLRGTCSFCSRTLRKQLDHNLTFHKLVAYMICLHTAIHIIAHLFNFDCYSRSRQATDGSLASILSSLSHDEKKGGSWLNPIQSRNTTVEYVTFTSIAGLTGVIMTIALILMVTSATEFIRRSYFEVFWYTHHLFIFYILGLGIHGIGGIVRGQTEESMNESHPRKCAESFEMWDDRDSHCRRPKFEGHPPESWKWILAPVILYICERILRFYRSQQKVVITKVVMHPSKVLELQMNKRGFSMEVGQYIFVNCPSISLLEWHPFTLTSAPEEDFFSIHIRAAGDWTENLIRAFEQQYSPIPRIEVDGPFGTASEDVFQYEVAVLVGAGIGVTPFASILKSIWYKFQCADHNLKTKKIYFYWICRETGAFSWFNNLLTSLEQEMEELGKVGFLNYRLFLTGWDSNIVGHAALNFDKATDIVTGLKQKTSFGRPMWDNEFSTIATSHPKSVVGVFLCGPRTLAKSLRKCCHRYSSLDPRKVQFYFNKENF

Cytochrome P450 2C9 = Cytochrome P450 2C9 (Homo sapiens, UniProt P11712); conditions: Potency
Cytochrome P450 2C9, sequence (P11712 whole entry): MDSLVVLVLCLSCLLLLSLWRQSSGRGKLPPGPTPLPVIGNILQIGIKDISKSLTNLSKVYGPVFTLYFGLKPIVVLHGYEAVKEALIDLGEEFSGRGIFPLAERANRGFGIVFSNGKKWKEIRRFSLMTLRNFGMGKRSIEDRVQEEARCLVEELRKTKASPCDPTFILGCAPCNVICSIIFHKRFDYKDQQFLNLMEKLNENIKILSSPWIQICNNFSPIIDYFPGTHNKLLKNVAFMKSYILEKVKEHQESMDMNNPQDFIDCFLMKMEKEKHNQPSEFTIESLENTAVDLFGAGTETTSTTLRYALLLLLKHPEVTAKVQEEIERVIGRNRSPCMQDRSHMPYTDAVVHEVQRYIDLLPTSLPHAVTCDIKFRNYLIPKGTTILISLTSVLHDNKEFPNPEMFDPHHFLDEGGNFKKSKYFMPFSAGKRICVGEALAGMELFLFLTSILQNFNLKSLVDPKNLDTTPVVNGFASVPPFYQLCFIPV

Polyadenylate-binding protein 1, sequence (P11940 whole entry): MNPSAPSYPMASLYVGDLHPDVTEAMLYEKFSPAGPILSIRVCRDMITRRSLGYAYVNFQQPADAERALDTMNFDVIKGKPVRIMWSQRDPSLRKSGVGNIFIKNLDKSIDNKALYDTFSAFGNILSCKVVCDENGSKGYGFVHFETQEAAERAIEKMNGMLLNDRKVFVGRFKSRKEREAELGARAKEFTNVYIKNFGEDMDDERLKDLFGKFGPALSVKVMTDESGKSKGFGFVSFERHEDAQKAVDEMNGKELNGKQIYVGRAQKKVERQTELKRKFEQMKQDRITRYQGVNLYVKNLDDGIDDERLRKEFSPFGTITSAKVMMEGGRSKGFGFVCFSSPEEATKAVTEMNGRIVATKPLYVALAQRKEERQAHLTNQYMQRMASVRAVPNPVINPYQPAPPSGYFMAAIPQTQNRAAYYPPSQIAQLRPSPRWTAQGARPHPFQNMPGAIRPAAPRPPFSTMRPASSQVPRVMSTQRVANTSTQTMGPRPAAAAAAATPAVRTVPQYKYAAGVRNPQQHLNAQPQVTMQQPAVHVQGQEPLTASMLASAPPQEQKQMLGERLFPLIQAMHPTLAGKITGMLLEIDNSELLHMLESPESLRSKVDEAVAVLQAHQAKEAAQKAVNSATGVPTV
Bcl-2-like protein 10, sequence (Q9HD36 whole entry): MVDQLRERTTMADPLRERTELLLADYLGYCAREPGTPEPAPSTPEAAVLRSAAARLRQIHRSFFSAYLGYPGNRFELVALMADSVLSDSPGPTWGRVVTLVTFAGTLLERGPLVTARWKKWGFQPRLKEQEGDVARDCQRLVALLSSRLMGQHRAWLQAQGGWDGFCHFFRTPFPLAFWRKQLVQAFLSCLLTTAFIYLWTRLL
DNA dC->dU-editing enzyme APOBEC-3G, sequence (Q9HC16 whole entry): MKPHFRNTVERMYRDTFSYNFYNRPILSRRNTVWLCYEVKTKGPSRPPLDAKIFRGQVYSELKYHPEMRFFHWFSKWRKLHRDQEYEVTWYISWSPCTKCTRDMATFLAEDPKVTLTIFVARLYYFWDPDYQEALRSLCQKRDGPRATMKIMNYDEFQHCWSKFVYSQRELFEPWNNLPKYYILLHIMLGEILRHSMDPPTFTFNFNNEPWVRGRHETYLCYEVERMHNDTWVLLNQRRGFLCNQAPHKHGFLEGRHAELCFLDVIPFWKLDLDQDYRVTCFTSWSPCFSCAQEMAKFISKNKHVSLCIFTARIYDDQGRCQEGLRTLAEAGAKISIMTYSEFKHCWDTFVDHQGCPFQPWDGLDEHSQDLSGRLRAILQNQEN
DNA dC->dU-editing enzyme APOBEC-3A, sequence (P31941 whole entry): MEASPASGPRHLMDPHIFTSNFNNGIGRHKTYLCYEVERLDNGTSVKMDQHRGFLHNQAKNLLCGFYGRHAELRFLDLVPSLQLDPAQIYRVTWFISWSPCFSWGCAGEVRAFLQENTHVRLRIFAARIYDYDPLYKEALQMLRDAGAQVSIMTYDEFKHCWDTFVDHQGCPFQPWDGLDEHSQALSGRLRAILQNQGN

SMILES: Cc1cc(=O)oc2cc(NC(=O)c3ccccc3Cl)ccc12
- EC50 [1]: 0.208 µM (active)
- EC50 [2]: < 0.1 µM (active)
- EC50 [3]: 0.364 µM (active)
- EC50 [4]: 0.345 µM (active)

SMILES: Cc1ccc[n+](CC(=O)c2ccccc2)c1
- IC50 [5]: > 100 µM (inactive)
- IC50 [6]: 5.7 µM (active)

SMILES: C[N+]1(CC(O)c2ccccc2)CCCCCC1 (stereo not given)
- IC50 [5]: 60.9 µM (active)
- IC50 [7]: 2.71 µM (active)
- IC50 [8]: 4.26 µM (active)
- IC50 [6]: 5.42 µM (active)

SMILES: COc1ccc(-c2coc3c(CN4CCCCC4)c(O)c(CN4CCCCC4)c(O)c3c2=O)cc1
- IC50 (Bcl-2-like protein 10): 79.7 µM (inactive)
- EC50 [9]: 34.4 µM (active)
- EC50 [10]: 32.6 µM (active)

SMILES: O=[N+]([O-])c1ccc2c(c1)Sc1ccc(C(F)(F)F)cc1N2
- IC50 (NADPH oxidase 1): 1.41 µM (active)

SMILES: CC(C)[C@@H](CC(=O)N[C@@H]1CCNC[C@H]1C(=O)N[C@H](CC(=O)N[C@@H](CCC(=O)O)CC(=O)O)Cc1c[nH]c2ccccc12)NC(=O)C[C@H](CO)NC(=O)[C@@H]1CNCC[C@H]1N
- AC50 (Cytochrome P450 2C9): 39.8 µM (inconclusive)
